Data as given in patent US8609731B2, “Substituted tetrahydronaphthalenes, process for the preparation thereof and the use thereof as medicaments” (SANOFI, priority 2007, dated 2013).

Test system: not listed separately
Assay: physchem
Format: physicochemical
Settings: pH 7.4, aqueous buffer, kinetic from dmso stock
Method: A DMSO solution of the test compound (2.5 mM; 0.5 μl) is pipetted into 200 μl of an aqueous test solution (e.g. phosphate-buffered saline, 10×, 1M, Sigma, adjusted to 10 mM, pH 7.4) in a 96-well microtiter plate, and the turbidity is measured at the resulting theoretical concentration for the test compound of 6.25 μM using a nephelometer (e.g. Nephelostar Galaxy, BMG Labtech). The concentration of the test compound in the aqueous test solution is then raised to a theoretical 12.5 μM by adding further DMSO solution (2.5 mM; 0.5 μl), and the turbidity measurement is repeated. Further additions of DMSO solutions (1 μl, 2.5 mM; 0.5 μl, 10 mM; then 9×1 μl, 10 mM resulting in theoretical concentrations of 25 μM, 50 μM, 100 μM, 150 μM, 200 μM, 250 μM, 300 μM, 350 μM, 400 μM, 450 μM and 500 μM) with turbidity measurement in between complete the measurement process.
Evaluation: The turbidity values from the nephelometer are plotted against the theoretical concentration of the test compound in the aqueous test solution. As soon as a significant turbidity is detected (e.g. 5 times above the control value of the aqueous test solution) at a theoretical concentration, the level of concentration below this is stated to be the solubility limit of the test compound in the test solution. Thus, the maximum possible measurement range emerges as values <6.25 μM, 6.25−500 μM and >500 μM.

SMILES | solubility kinetic [µM]
O=C(N[C@H]1CCc2cc(CNC3CCCCC3)ccc2C1)c1ccc(OC[C@@H]2CCCO2)cc1 [Example 3-6] | > 500

Target: T1, hERG channel (Homo sapiens, UniProt Q12809)
T1 construct: expressed in transfected cells; host or cells: CHO cells (ATCC), pcDNA3 vector, G418 selection
T1 sequence (Q12809 whole entry): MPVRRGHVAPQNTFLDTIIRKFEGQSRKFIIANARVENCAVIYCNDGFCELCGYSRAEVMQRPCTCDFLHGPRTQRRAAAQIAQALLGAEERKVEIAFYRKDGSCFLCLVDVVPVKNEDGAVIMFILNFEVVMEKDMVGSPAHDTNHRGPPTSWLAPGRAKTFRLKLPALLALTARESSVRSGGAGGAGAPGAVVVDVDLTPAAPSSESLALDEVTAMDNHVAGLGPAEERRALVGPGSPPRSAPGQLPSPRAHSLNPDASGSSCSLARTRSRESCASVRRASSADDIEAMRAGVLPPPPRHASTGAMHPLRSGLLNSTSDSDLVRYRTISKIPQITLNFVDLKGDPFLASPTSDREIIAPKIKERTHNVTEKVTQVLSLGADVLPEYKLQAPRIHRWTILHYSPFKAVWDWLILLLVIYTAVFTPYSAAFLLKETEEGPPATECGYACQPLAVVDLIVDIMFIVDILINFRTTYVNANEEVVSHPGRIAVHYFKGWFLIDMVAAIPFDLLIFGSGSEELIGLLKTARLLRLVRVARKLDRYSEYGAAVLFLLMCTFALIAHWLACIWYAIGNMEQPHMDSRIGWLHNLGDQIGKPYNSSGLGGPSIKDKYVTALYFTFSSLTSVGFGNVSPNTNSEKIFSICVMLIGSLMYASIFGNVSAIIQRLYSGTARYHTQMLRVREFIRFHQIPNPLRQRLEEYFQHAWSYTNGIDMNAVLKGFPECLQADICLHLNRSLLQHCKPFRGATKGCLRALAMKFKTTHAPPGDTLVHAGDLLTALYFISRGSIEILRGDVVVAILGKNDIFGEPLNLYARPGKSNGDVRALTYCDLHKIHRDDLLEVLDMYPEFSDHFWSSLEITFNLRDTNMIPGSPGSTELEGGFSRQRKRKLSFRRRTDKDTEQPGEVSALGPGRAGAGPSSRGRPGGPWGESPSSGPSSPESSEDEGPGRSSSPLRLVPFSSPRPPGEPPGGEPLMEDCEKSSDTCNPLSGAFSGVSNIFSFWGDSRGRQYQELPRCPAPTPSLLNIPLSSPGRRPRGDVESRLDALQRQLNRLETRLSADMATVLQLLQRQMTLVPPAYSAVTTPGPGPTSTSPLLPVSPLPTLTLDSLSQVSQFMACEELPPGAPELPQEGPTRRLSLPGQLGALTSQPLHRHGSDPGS
Assay: hERG channel blockade, whole-cell patch clamp in CHO cells expressing hERG
Format: cell-based
Settings: CHO cells with stable hERG expression, room temperature, read-out: hERG Inh. IC50
From the text: The aim of the test is to determine the concentration range in which the test compound blocks the cardiac hERG channel. Blockade of the hERG channel, which is responsible for the Ikr current in the human heart, is associated with potentially fatal arrhythmias.
For expression of the cDNA encoding the hERG channel it was cloned into the pcDNA3 vector (Invitrogen). Chinese hamster […] (CHO, American Type Culture Collection, Rockville, Md.) were transfected using lipofectamine (GIBCO/BRL, Grand Island, N.Y.) with the hERG cDNA and selected using G418 (GIBCO/BRL, Grand Island, N.Y.; 500 μg/ml). CHO cells with stable expression of the hERG channel were cultured on a HAM F-12 medium which was supplemented with 10% native bovine serum, 1× penicillin/streptomycin and 500 μg/ml G418 in an atmosphere of 95% air/5% carbon dioxide.
The cells selected for the patch clamp experiment are seeded on a plastic support 18-24 hours before the experiment. HERG channel currents are recorded at room temperature by the whole-cell variant of the patch clamp technique using an Axopatch 200B amplifier (Axon Instruments, Foster City, Calif.). The electrodes (3-6 megaohms resistance) are prepared from TW150F glass capillaries (World Precision Instruments, Sarasota, Fla.) and filled with the pipette solution (120 mM potassium aspartate, 20 mM KCl, 4 mM Na2ATP, 5 mM HEPES, 1 mM MgCl2; adjusted to pH 7.2 with KOH). The hERG channel currents are induced by a positive voltage pulse (20 mV) followed by a negative pulse (−40 mV) and are recorded for later analysis. As soon as the hERG channel current of the cell flushed with the control solution ([…], 5 mM KCl, 2.8 mM NaOAc, 1 mM MgCl2, 10 mM HEPES; 10 mM glucose, 1 mM CaCl2; adjusted to pH 7.4 with NaOH) is stable, the cell is perfused with the test compound dissolved in the above control solution (by dilution of a 10 or 100 mM DMSO solution of the test compound so that the DMSO content is no more than 0.1%). The current is followed continuously until no further changes occur. The same procedure is repeated with increasing concentrations of the test compound. The maximum amplitude of the hERG current is measured in picoAmperes (pA) for each concentration and for each cell. The maximum amplitude in pA for each concentration of the test compound is compared with that of the pure control solution in the same cell and calculated as % of the control value.
Evaluation: The test compound is tested at various concentrations in 3-5 CHO cells which express the hERG channel. The IC50 is obtained by use of nonlinear least squares regression (GraphPAD Software, San Diego, Calif.).

SMILES | IC50 [µM]
O=C(N[C@H]1CCc2cc(CNC3CCCCC3)ccc2C1)c1ccc(OC[C@@H]2CCCO2)cc1 [Example 3-6] | > 10

Target: T2, human MCH receptor (Homo sapiens, UniProt Q99705)
T2 construct: expressed in transfected cells
T2 sequence (Q99705 whole entry): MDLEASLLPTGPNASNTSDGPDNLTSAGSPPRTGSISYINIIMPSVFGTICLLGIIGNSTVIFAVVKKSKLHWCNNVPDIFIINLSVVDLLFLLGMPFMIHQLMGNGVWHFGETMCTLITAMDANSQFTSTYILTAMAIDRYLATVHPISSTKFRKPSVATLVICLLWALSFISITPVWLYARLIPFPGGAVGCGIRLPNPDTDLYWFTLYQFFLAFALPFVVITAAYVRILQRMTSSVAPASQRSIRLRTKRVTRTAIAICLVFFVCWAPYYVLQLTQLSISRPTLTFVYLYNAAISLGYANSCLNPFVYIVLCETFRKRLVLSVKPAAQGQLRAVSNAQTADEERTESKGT
Assay: calcium mobilization assay (FLIPR); functional IC50 of MCH1R antagonists
Format: cell-based
Settings: recombinant HEK293 cell line expressing human MCH receptor; calcium flux after addition of agonist MCH
From the text: Influence on the MCH Receptor In Vitro; Determination of Functional IC50 Values of MCH1R Antagonists
Cloning of the cDNA for the human MCH receptor, preparation of a recombinant HEK293 cell line which expresses the human MCH receptor, and functional measurements with the recombinant cell line took place in analogy to the description by Audinot et al. (J. Biol. Chem. 2001, 276, 13554-13562). A difference from the reference was, however, the use of the plasmid pEAK8 from EDGE Biosystems (USA) for the construction of the expression vector. The host used for the transfection was a transformed HEK cell line named “PEAK Stable Cells” (likewise from EDGE Biosystems). Functional measurements of the cellular calcium flux after addition of agonist (MCH) in the presence of ligand of the invention took place with the aid of the FLIPR apparatus from Molecular Devices (USA), using protocols of the apparatus manufacturer. The compounds of the invention show a significant inhibition (>30%) of the signal induced by the agonist at a concentration of 100 μM, preferably at 10 μM, particularly preferably at 1 μM, very particularly preferably at 100 nM and very very particularly preferably at 10 nM.

SMILES | IC50 [µM]
CN(C(=O)c1ccc(OC[C@@H]2CCCO2)cc1)[C@H]1CCc2cc(CN3CCCC3)ccc2C1 [Example 2, N-Methyl-N-((S)-6-pyrrolidin-1-ylmethyl-1,2,3,4-tetrahydronaphthalen-2-yl)-4-[(S)-1-(tetrahydrofuran-2-yl)methoxy]benzamide] | 0.67
O=C(N[C@@H]1CCc2cc(CN3CCCC3)ccc2C1)c1ccc(OC[C@@H]2CCCO2)cc1 [Example 3-2] | 3.29
O=C(N[C@H]1CCc2cc(CN3CC4CCCC4C3)ccc2C1)c1ccc(OC[C@@H]2CCCO2)cc1 (some centres unmarked) [Example 3-14] | 0.1
COC(=O)CNCc1ccc2c(c1)CC[C@H](NC(=O)c1ccc(OC[C@@H]3CCCO3)cc1)C2 [Example 3-26] | 0.36
O=C(N[C@H]1CCc2cc(CNCCCn3ccnc3)ccc2C1)c1ccc(OC[C@@H]2CCCO2)cc1 [Example 3-32] | 0.13
O=C(N[C@H]1CCc2cc(CNCCCN3CCCC3=O)ccc2C1)c1ccc(OC[C@@H]2CCCO2)cc1 [Example 3-33] | 0.27
CN1CCN(Cc2ccc3c(c2)CC[C@H](NC(=O)c2ccc(OC[C@@H]4CCCO4)cc2)C3)CC1 [Example 3-37] | 0.34
O=C(N[C@H]1CCc2cc(CN3CCC(O)CC3)ccc2C1)c1ccc(OC[C@@H]2CCCO2)cc1 [Example 3-40] | 0.18
CC(=O)N1CCN(Cc2ccc3c(c2)CC[C@H](NC(=O)c2ccc(OC[C@@H]4CCCO4)cc2)C3)CC1 [Example 3-44] | 0.31
O=C(N[C@H]1CCc2cc(CN3C[C@H]4CC[C@H](CC4)C3)ccc2C1)c1ccc(OC[C@@H]2CCCO2)cc1 [Example 3-48] | 0.21
Cc1ccc(CNCc2ccc3c(c2)CC[C@H](NC(=O)c2ccc(OC[C@@H]4CCCO4)cc2)C3)o1 [Example 3-51] | 0.19
O=C(N[C@H]1CCc2cc(CNCC3OCCO3)ccc2C1)c1ccc(OC[C@@H]2CCCO2)cc1 [Example 3-61] | 0.3
CS(=O)(=O)CCNCc1ccc2c(c1)CC[C@H](NC(=O)c1ccc(OC[C@@H]3CCCO3)cc1)C2 [Example 3-64] | 0.18
Cc1cc(CNCc2ccc3c(c2)CC[C@H](NC(=O)c2ccc(OC[C@@H]4CCCO4)cc2)C3)no1 [Example 3-71] | 0.75
O=C1CN(Cc2ccc3c(c2)CC[C@H](NC(=O)c2ccc(OC[C@@H]4CCCO4)cc2)C3)CCN1 [Example 3-72] | 1.85
O=C(N[C@H]1CCc2cc(CN3CCCOCC3)ccc2C1)c1ccc(OC[C@@H]2CCCO2)cc1 [Example 3-77] | 0.12
N#CC1CCN(Cc2ccc3c(c2)CC[C@H](NC(=O)c2ccc(OC[C@@H]4CCCO4)cc2)C3)CC1 [Example 3-84] | 0.17
O=C(N[C@H]1CCc2cc(CN3CC[C@@H](F)C3)ccc2C1)c1ccc(OC[C@@H]2CCCO2)cc1 [Example 3-86] | 0.12

SMILES | IC50 [µM]
O=C(N[C@H]1CCc2cc(CN3C[C@@H]4C[C@H]3CO4)ccc2C1)c1ccc(OC[C@@H]2CCCO2)cc1 [Example 3-100] | 0.33
COc1ccc(CNCc2ccc3c(c2)CC[C@H](NC(=O)c2ccc(OC[C@@H]4CCCO4)cc2)C3)cn1 [Example 3-103] | 0.2
O=C(N[C@H]1CCc2cc(CN3CCn4cnnc4C3)ccc2C1)c1ccc(OC[C@@H]2CCCO2)cc1 [Example 3-120] | 2.41
CC(C)(C)CNCCc1ccc2c(c1)CC[C@H](NC(=O)c1ccc(OC[C@@H]3CCCO3)cc1)C2 [Example 3-135] | 0.15
O=C(N[C@H]1CCc2cc(CN3CCC4(CCCC4)C3)ccc2C1)c1ccc(OC[C@@H]2CCCO2)cc1 [Example 3-194] | 0.09
CC1(CNCc2ccc3c(c2)CC[C@H](NC(=O)c2ccc(OC[C@@H]4CCCO4)cc2)C3)CCCC1 [Example 3-195] | 0.11
CC(C)(C)CNC(C)(C)c1ccc2c(c1)CC[C@H](NC(=O)c1ccc(OC[C@@H]3CCCO3)cc1)C2 [Example 8-1, N-{(S)-6-[1-(2,2-Dimethylpropylamino)-1-methylethyl]-1,2,3,4-tetrahydro-naphthalen-2-yl}-4-[(S)-1-(tetrahydrofuran-2-yl)methoxy]benzamide] | 0.24
CC(C)CN1CCCC(c2ccc3c(c2)CC[C@H](NC(=O)c2ccc(OC[C@@H]4CCCO4)cc2)C3)C1 (some centres unmarked) [Example 8-3] | 0.23
CN1CCCCC1c1ccc2c(c1)CC[C@H](NC(=O)c1ccc(OC[C@@H]3CCCO3)cc1)C2 (some centres unmarked) [Example 8-8] | 0.18
CC(C)CCN[C@H](C)c1ccc2c(c1)CC[C@H](NC(=O)c1ccc(OC[C@@H]3CCCO3)cc1)C2 [Example 8-16] | 0.12
O=C(N[C@H]1CCc2cc([C@@H]3CCCN(C4CCOCC4)C3)ccc2C1)c1ccc(OC[C@@H]2CCCO2)cc1 [Example 8-26] | 0.23
CC1(COc2ccc(C(=O)N[C@H]3CCc4cc(CN5CCCCCC5)ccc4C3)cc2)COC1 [Example 9-2] | 1.28
O=C(N[C@H]1CCc2cc(CN3CCCCCC3)ccc2C1)c1ccc(OCC2OCCO2)cc1 [Example 9-3] | 0.17
O=C(N[C@H]1CCc2cc(CN3CCCCCC3)ccc2C1)c1ccc(OCC2CCOCC2)cc1 [Example 9-4] | 0.44
O=C(N[C@H]1CCc2cc(CN3CCCCCC3)ccc2C1)c1ccc(OCC2CCCCO2)cc1 (some centres unmarked) [Example 9-5] | 0.31
CC1CCN([C@H](C)c2ccc3c(c2)CC[C@H](NC(=O)c2ccc(OC[C@@H]4CCCO4)cc2)C3)CC1 [Example 10, N-{(S)-6-[(R)-1-(4-Methylpiperidin-1-yl)ethyl]-1,2,3,4-tetrahydronaphthalen-2-yl}-4-[(S)-1-(tetrahydrofuran-2-yl)methoxy]benzamide] | 0.11
O=C(N[C@H]1CCc2cc(CN3CCCCCC3)ccc2C1)c1ccc(OC[C@@H]2CCCO2)c(F)c1 [Example 12, N-((S)-6-Azepan-1-ylmethyl-1,2,3,4-tetrahydronaphthalen-2-yl)-3-fluoro-4-[(S)-1-(tetrahydrofuran-2-yl)methoxy]benzamide] | 0.3
COC1CCN(Cc2ccc3c(c2)CC[C@H](n2ccc4cc(OC[C@@H]5CCCO5)ccc4c2=O)C3)CC1 [Example 13, 2-[(S)-6-(4-Methoxypiperidin-1-ylmethyl)-1,2,3,4-tetrahydronaphthalen-2-yl]-6-[(S)-1-(tetrahydrofuran-2-yl)methoxy]-2H-isoquinolin-1-one] | 1.4
